# In patent US10058570B2 (priority 2007, dated 2018):
# Where “and” joins values, the source holds several entries; their conditions need not be identical. Equal entries are not always repeated. Where two headings read alike, the source gives them in different places.
# Key:
# [1] = test system: developing type II collagen arthritis
# [2] = test system: adjuvant arthritis
# [3] = test system: formalin-induced hind paw licking; assay type: in vivo, mouse; conditions: mouse, in vivo
# [4] = test system: acetic acid-induced writhing responses; conditions: mouse, in vivo
# [5] = test system: lipopolysaccharide-induced septic shock; assay type: in vivo, mouse; conditions: mouse, in vivo
# [6] = test system: LPS-induced neutrophilia in lung tissues; conditions: mouse, in vivo
# [7] = test system: reaction of host lymphocytes to alloantigen; conditions: mouse, in vivo, 10 mg/kg
# [8] = test system: MRMT-1 tumor-induced bone osteolysis; conditions: rat, in vivo
# [9] = sodium meta arsenite study, oral QD, 0.075 mg/kg
structure (smiles),measurement,setting,value
"CN(Cc1cnc2nc(N)nc(N)c2n1)c1ccc(C(=O)N[C@@H](CCC(=O)O)C(=O)O)cc1 [MTX, methotrexate, reference compound]","Relative spleen weights, reduction as compared to disease control rats","[1]; rat, in vivo, po, 0.075 mg/kg",10%
same,inhibition of ankle diameter,"[1]; sodium meta arsenite study, oral 0.075 mg/kg, days 10-17",Significant inhibition
same,inhibition of body weight loss (due to arthritis),"[1]; sodium meta arsenite study, oral QD days 0-16, 0.075 mg/kg",96%
same,Inhibition of ankle diameter (AUC),[1]; [9],97%
same,Inhibition of final paw weight,[1]; [9],95%
same,inhibition of ankle histopathology parameters,[1]; [9],97%
same,inhibition of knee histopathologic parameters,[1]; [9],100%
same,Inhibition of body weight loss from day zero,[2]; PO 0.1 mg/kg,91%
same,"Relative liver weights, reduction toward normal",[2]; PO 0.1 mg/kg,100%
same,inhibition of ankle diameter AUC increase,[2]; PO 0.1 mg/kg,96%
same,inhibition of ankle measurements (dorsal to ventral),[2]; PO 0.1 mg/kg,97%
same,inhibition of final paw weight increase due to arthritis,[2]; PO 0.1 mg/kg,99%
same,inhibition of histopathologic bone resorption,[2]; PO 0.1 mg/kg,100%
same,inhibition of histopathologic inflammation,[2]; PO 0.1 mg/kg,99%
same,inhibition of lymphoid atrophy,[2]; PO 0.1 mg/kg,50%
same,inhibition of splenic inflammation,[2]; PO 0.1 mg/kg,100%
same,inhibition of ankle diameter increase,"[2]; PO 0.1 mg/kg, significant days 8-14",Significant inhibition
same,Mean body weight decrease over time (due to arthritis),"[2]; PO 0.1 mg/kg, significant days 10-14",inhibited
same,"Relative spleen weights, reduction toward normal",[2]; PO 0.01,77%
"O=[As][O-].[Na+] [sodium meta arsenite, sodium meta arsenite (NaAsO2)]",analgesic activity,[3],significant analgesic activity
same,analgesic effect,[4],no analgesic effect
same,analgesic activity,"[4]; po, 10 mg/kg",significant analgesic activity
same,number of writhing responses (average),"[4]; po, 10 mg/kg",7 writhing events
same,IL-1β secretion,[5],significant inhibition
same,IL-6 secretion,[5],inhibition
same,protection against LPS-induced septic shock,[5],moderate protection
same,secretion of KC,[5]; po,no effect
same,secretion of MCP-1,[5]; po,no effect
same,secretion of TNF-α,[5]; po,no effect
same,KC in lavage fluid,[6],significant reduction
same,TNF-α in lavage fluid,[6],significant suppression
same,cell counts in lavage fluid,[6],not associated with any significant changes
same,monocyte count in lavage fluid,[6],significant decrease
same,neutrophil (differential) count in lavage fluid,[6],significant decrease
same,"secretion of 1L-1β, Il-6 or MCP-1 observed in brachoaveolar lavage fluid",[6],At no concentration
same,white blood cell (total) count in lavage fluid,[6],significant decrease
same,immunosuppressive effect in animals treated with alloantigen,[7],slight immunosuppressive effect
same,ameliorating tumor-induced osteoclasts and osteolysis,[8],strong positive trend
same,improving the various aspects of cancer-induced bone damage (histopathology),[8],positive trend
same,inhibition of body weight loss (due to arthritis),"[1]; rat, in vivo",100%
same,"Relative thymus weights, reduction as compared to disease controls","[1]; rat, in vivo, 1 mg/kg",20%
same,"Calculated ED50 value, ankle diameter (AUC)","[1]; rat, in vivo, po",8.499 mg/kg
same,"Calculated ED50 value, ankle histopathology","[1]; rat, in vivo, po",7.080 mg/kg
same,"Calculated ED50 value, body weight loss","[1]; rat, in vivo, po",1.929 mg/kg
same,"Calculated ED50 value, final paw weight","[1]; rat, in vivo, po",7.116 mg/kg
same,"Calculated ED50 value, knee histopathology","[1]; rat, in vivo, po",7.924 mg/kg
same,Inhibition of ankle diameter (AUC),"[1]; rat, in vivo, po, 10 mg/kg",73%
same,Inhibition of ankle diameter AUC,"[1]; rat, in vivo, po, 10 mg/kg",66%
same,Inhibition of final paw weight,"[1]; rat, in vivo, po, 10 mg/kg",83% and 69%
same,"Relative liver weights, increase above arthritic controls","[1]; rat, in vivo, po, 10 mg/kg",14%
same,"Relative liver weights, increase over disease controls","[1]; rat, in vivo, po, 10 mg/kg",17%
same,"Relative spleen weights, reduction as compared to disease control rats","[1]; rat, in vivo, po, 10 mg/kg",10%
same,inhibition of ankle diameter,"[1]; rat, in vivo, po, 10 mg/kg",Significant inhibition
same,inhibition of ankle histopathology parameters,"[1]; rat, in vivo, po, 10 mg/kg",85%
same,inhibition of body weight loss,"[1]; rat, in vivo, po, 10 mg/kg",85%
same,inhibition of decrease in ankle diameter,"[1]; rat, in vivo, po, 10 mg/kg",Significant inhibition
same,inhibition of knee histopathologic parameters,"[1]; rat, in vivo, po, 10 mg/kg",87%
same,Inhibition of body weight loss from day 0,"[2]; rat, in vivo",2-14%
same,"Relative liver weights, reduction","[2]; rat, in vivo",7-29%
same,tolerability,"[2]; rat, in vivo",well tolerated
same,"Calculated ED50, ankle diameter AUC","[2]; rat, in vivo, po",10.62 mg/kg
same,"Calculated ED50, ankle measurements (dorsal to ventral)","[2]; rat, in vivo, po",13.65 mg/kg
same,"Calculated ED50, final paw weight","[2]; rat, in vivo, po",1421 mg/kg
same,"Calculated ED50, histopathologic bone resorption","[2]; rat, in vivo, po",9.243 mg/kg
same,"Calculated ED50, histopathologic inflammation","[2]; rat, in vivo, po",17.25 mg/kg
same,inhibition of histopathologic inflammation,"[2]; rat, in vivo, po",76%
same,inhibition of lymphoid atrophy,"[2]; rat, in vivo, po",29%
same,inhibition of splenic inflammation,"[2]; rat, in vivo, po",32%
same,inhibition of ankle diameter increase,"[2]; rat, in vivo, po, 3 mg/kg",Significant inhibition
same,"Relative spleen weights, reduction toward normal","[2]; rat, in vivo, po, 10 mg/kg",50%
same,inhibition of ankle diameter AUC increase,"[2]; rat, in vivo, po, 10 mg/kg",46%
same,inhibition of ankle diameter increase,"[2]; rat, in vivo, po, 10 mg/kg",Significant inhibition
same,inhibition of ankle measurements (dorsal to ventral),"[2]; rat, in vivo, po, 10 mg/kg",36%
same,inhibition of final paw weight increase due to arthritis,"[2]; rat, in vivo, po, 10 mg/kg",28%
same,inhibition of histopathologic bone resorption,"[2]; rat, in vivo, po, 10 mg/kg",59%
same,inhibition of histopathologic inflammation,"[2]; rat, in vivo, po, 10 mg/kg",24%
same,Mean body weight loss over time,"[2]; rat, in vivo, po, 30 mg/kg",significantly increased
same,"Relative spleen weights, reduction toward normal","[2]; rat, in vivo, po, 30 mg/kg",91%
same,inhibition of ankle diameter AUC increase,"[2]; rat, in vivo, po, 30 mg/kg",83%
same,inhibition of ankle diameter increase,"[2]; rat, in vivo, po, 30 mg/kg",Significant inhibition
same,inhibition of ankle measurements (dorsal to ventral),"[2]; rat, in vivo, po, 30 mg/kg",81%
same,inhibition of final paw weight increase due to arthritis,"[2]; rat, in vivo, po, 30 mg/kg",83%
same,inhibition of histopathologic bone resorption,"[2]; rat, in vivo, po, 30 mg/kg",81%
same,inhibition of lymphoid atrophy,"[2]; rat, in vivo, po, 30 mg/kg",39%
same,inhibition of splenic inflammation,"[2]; rat, in vivo, po, 30 mg/kg",89%
same,toxicity (based on body weight changes),"[2]; rat, in vivo, po, 30 mg/kg",toxic
